Reference: US9284325B2, “Spectinamides as anti-tuberculosis agents” (UNIVERSITY OF TENNESSEE RESEARCH FOUNDATION, priority 2009, dated 2016)
In brackets after ≈: the same amount, converted by molar mass. Where a name gives a salt, the structure may show the parent alone.

How the values were obtained:
[1] = system: Strep. pneumoniae DAW27 or strain R6; assay: MIC determination by microbroth dilution; assay type: cell-based, Streptococcus pneumoniae; details: Streptococcus pneumoniae; Strep. pneumoniae DAW27 or strain R6 (for 1443-1544); read-out: MIC S. pneumoniae
E. coli K12 = assay: MIC determination by microbroth dilution; assay type: cell-based, Escherichia coli; details: Escherichia coli, K12
M. tuberculosis H37Rv = assay: MIC determination by microbroth dilution, anti-tuberculosis activity; assay type: cell-based, Mycobacterium tuberculosis; details: Mycobacterium tuberculosis, H37RV, 168 h; read-out: MIC
E. coli ribosomes = assay type: biochemical; details: for IC50, 50% inhibition of luciferase biosynthesis in S30 assay: E. coli S30 transcription/translation assay; for relative inhibitory activity on luciferase production: tested at 0.66 and 6.6 μM, FIG. 5
E. faecalis ATCC 33186 = assay: MIC determination by microbroth dilution; assay type: cell-based, Enterococcus faecalis; details: Enterococcus faecalis, ATCC33186
[2] = system: Strep. pyogenes ATCC 700294; assay: MIC determination by microbroth dilution; assay type: cell-based, Streptococcus pyogenes; details: Streptococcus pyogenes, ATCC700294, read-out: MIC S. pyogenes
[3] = system: S. aureus 8325 or strain ATCC 29213; assay: MIC determination by microbroth dilution; assay type: cell-based, Staphylococcus aureus; details: Staphylococcus aureus, ATCC29213; S. aureus 8325 or strain ATCC 29213 (for 1471-1544)
E. coli K12 ΔtolC = assay: microbe, parasite or virus in culture; assay type: cell-based; details: Escherichia coli, read-out: MIC E. coli K12 ΔtolC
[4] = system: Acinetobacter baumannii ATCC 19606; assay: MIC determination by microbroth dilution; assay type: cell-based; details: ATCC19606
P. aeruginosa PAO1 = assay: MIC determination by microbroth dilution; assay type: cell-based, Pseudomonas aeruginosa; details: Pseudomonas aeruginosa
[5] = system: Proteus vulgaris ATCC 33420; assay: MIC determination by microbroth dilution; assay type: cell-based; details: ATCC33420
B. anthracis Sterne 34F2 = assay: microbe, parasite or virus in culture; assay type: cell-based, Bacillus anthracis; details: Bacillus anthracis, STERNE34F2, read-out: MIC B. anthracis 34F2
[6] = system: Proteus mirabilis ATCC 25933; assay: MIC determination by microbroth dilution; assay type: cell-based; details: ATCC25933
[7] = system: Burkholderia cepacia ATCC 25416; assay: MIC determination by microbroth dilution; assay type: cell-based; details: ATCC25416, read-out: MIC B. cepcia
[8] = system: Strenotrophomonas maltophilia ATCC 13637; assay: MIC determination by microbroth dilution; assay type: cell-based
[9] = system: Klebsiella pneumoniae ATCC 33495; assay: MIC determination by microbroth dilution; assay type: cell-based; details: ATCC33495

SMILES	MIC [1] [µg/mL]	MIC (E. coli K12) [µg/mL]	MIC (M. tuberculosis H37Rv) [µg/mL]	IC50, 50% inhibition of luciferase biosynthesis in S30 assay (E. coli ribosomes) [µg/mL]	MIC (E. faecalis ATCC 33186) [µg/mL]	MIC [2] [µg/mL]	MIC [3] [µg/mL]	MIC (E. coli K12 ΔtolC) [µg/mL]	MIC [4] [µg/mL]	MIC (P. aeruginosa PAO1) [µg/mL]	MIC [5] [µg/mL]	MIC (B. anthracis Sterne 34F2) [µg/mL]	MIC [6] [µg/mL]	MIC [7] [µg/mL]	MIC [8] [µg/mL]	MIC [9] [µg/mL]	relative inhibitory activity on luciferase production (E. coli ribosomes)
CN[C@@H]1[C@H](O)[C@H](NC)C2O[C@]3(O)C(OC2[C@H]1O)O[C@H](C)C[C@H]3NC(=O)Cc1nc2ccccc2o1 (stereo partly drawn) [Compound 1465, 3′-Dihydro-3′-deoxy-4(R)-(benzooxazol-2-yl)acetylamino spectinomycin trihydrobromide]	12.5	> 200	3.12	0.50	100	12.5	> 200	12.5	> 200	> 200	> 200	100	> 200	> 200	> 200	> 200	–
CN[C@@H]1[C@H](O)[C@H](NC)C2O[C@]3(O)C(OC2[C@H]1O)O[C@H](C)C[C@H]3NCc1ccc(C)cc1 (stereo partly drawn) [Compound 1425, 3′-Dihydro-3′-deoxy-4(R)-(4-methyl)benzylamino spectinomycin Trihydrochloride]	100	200	1000	–	100	12.5	50	100	> 200	200	> 200	100	> 200	> 200	> 200	> 200	inhibited well
CN[C@@H]1[C@H](O)[C@H](NC)C2O[C@]3(O)C(OC2[C@H]1O)O[C@H](C)C[C@H]3NCc1ccc(F)cc1 (stereo partly drawn) [Compound 1424, 3′-Dihydro-3′-deoxy-4(R)-4-fluoro)benzylamino spectinomycin Trihydrochloride]	25	200	200	0.80	100	50	50	50	> 200	200	> 200	100	> 200	> 200	> 200	> 200	inhibited well
CN[C@@H]1[C@H](O)[C@H](NC)C2O[C@]3(O)C(OC2[C@H]1O)O[C@H](C)C[C@H]3NC(=O)Cc1cccc(F)c1F (stereo partly drawn) [Compound 1447, 3′-Dihydro-3′-deoxy-4(R)-(2,3-difluoro-phenyl)acetylamino spectinomycin Dihydrochloride]	6.25	200	50	0.22	100	6.25	> 200	> 200	> 200	> 200	> 200	100	> 200	> 200	> 200	200	–
CN[C@@H]1[C@H](O)[C@H](NC)C2O[C@]3(O)C(OC2[C@H]1O)O[C@H](C)C[C@H]3NC(=O)c1cnccn1 (stereo partly drawn) [Compound 1453, 3′-Dihydro-3′-deoxy-4(R)-(pyrazine-2-yl)carboxylicamino spectinomycin tetrahydrobromide]	25	> 200	> 200	1.04	> 200	25	> 200	200	> 200	> 200	> 200	> 200	> 200	> 200	> 200	> 200	–
CN[C@@H]1[C@H](O)[C@H](NC)C2O[C@]3(O)C(OC2[C@H]1O)O[C@H](C)C[C@H]3NC(=O)Cc1c[nH]cn1 (stereo partly drawn) [Compound 1466, 3′-Dihydro-3′-deoxy-4(R)-(1H-imidazol-4-yl)acetylamino spectinomycin tetradrobromide]	12.5 (≈ 28.3 µM)	100 (≈ 227 µM)	6.25 (≈ 14.2 µM)	0.57	> 200	25 (≈ 56.6 µM)	> 200	50 (≈ 113 µM)	> 200	> 200	> 200	> 200	> 200	> 200	> 200	> 200	–
